Measurements from patent publication US9150531B2, “Tricyclic lactones for treatment of cancer” (Glactone Pharma Development AB, priority 2010, dated 2015).

Legend:
[1] = system: STAT-3 transcription factor; assay: STAT3 inhibition, luciferase reporter (4xM67 pTATA TK-Luc) in HeLa cells stimulated with γ-Interferon; assay type: cell-based; conditions: Homo sapiens, γ-Interferon 8 h, luciferase activity, read-out: Anti STAT3 IC50
Method: HeLa cells (4×10^4/ml) were transiently transfected with a luciferase reporter plasmid (4×M67 pTATA TK-Luc) driven by artificial promoter containing 4 repeated M67 binding sites in tandem for the STAT-3 transcription factor. The transfections were performed for 24 h using Roti-Fect reagent (Carl Roth, Karlsruhe, Germany) according to the manufacturer's recommendations. After incubation with different concentrations of the extracts for 30 min the transfected cells were stimulated for 8 h with γ-Interferon. Then, the cells were lysed in 25 mM Tris-phosphate pH 7.8, 8 mM MgCl2, 1 mM DTT, 1% Triton X-100, and 7% glycerol. Luciferase activity was measured as described for 5.1 cells.
γ-Interferon induces an average of 5-6 fold induction of the luciferase activity compared to non stimulated cells and this represent the index of transactivation that is represented in our experiment as the maximum levels of γ-Interferon-induced STAT-3 activation (100%). Results below represent the IC50 for each compound in this assay. The IC50 means the concentration of each compound that reduces luciferase activity by 50% and it was calculated by GraphPad software.

LNCaP-IL6 cells = assay: WST-1 proliferation assay, LNCaP-IL6 cells; assay type: cell-based, human
Method: (§1) The human prostate cancer cell lines DU145, LNCaP (from the American Type culture Collection, ATCC) and long-term interleukin-6 (IL-6) stimulated LNCaP cells (LNCaP-IL6 cells) (Hobisch, Ramoner et al. 2001) were used. The cells were cultured in RPMI 1640 medium supplemented with 10% FBS and 1% penicillin-streptomycin. All cells were incubated at 37° C. in a humidified atmosphere of […] and 5% CO2.
(§2) WST-1 proliferation assay was performed to study the effects of the test items on the proliferation and viability of cultured prostate cancer cells. LNCaP and DU145 cells were cultured in 96-well plates at the density of 2 000 cells/well in 200 μl of medium. Cells were allowed to set for 24 h. The cells were treated with 0, 2.5, 5 or 10 μM of the specific substance for 24 h and 48 h. Samples were made in triplicate. 20 μl WST-1 solution (Roche Applied Science, Mannheim, Germany) was added per well and incubated at 37° C. for 4 h. The absorbance of each well was measured using a scanning multiwell spectrophotometer, ELISA reader at a wavelength of 450 nm and reference wavelength of 690 nm. The results are presented as percent of untreated control cells or the absorbance value.

DU145 [2] = assay: WST-1 proliferation assay, DU145 cells (Example 16); assay type: cell-based, human
Method: as §1, §2

DU145 [3] = assay: WST-1 proliferation assay, DU145 cells (Example 17); assay type: cell-based, human
Method: The human prostate cancer cell line DU145 was used. The cells were cultured in RPMI 1640 medium supplemented with 10% FBS and 1% penicillin-streptomycin. All cells were incubated at 37° C. in a humidified atmosphere of […] and 5% CO2.
WST-1 proliferation assay was performed to study the effects of the test items on the proliferation and viability of cultured prostate cancer cells. DU145 cells were cultured in 96-well plates at the density of 2 000 cells/well in 200 μl of medium. Cells were allowed to set for 24 h and 48 h. The cells were treated with 0.5, 1.0, 2.5, 5.0, 10, and 50 μM of the specific substance for 24 h and 48 h. Samples were made in triplicate. 20 μl WST-1 solution (Roche Applied Science, Mannheim, Germany) was added per well and incubated at 37° C. for 4 h. The absorbance of each well was measured using a scanning multiwell spectrophotometer, ELISA reader at a wavelength of 450 nm and reference wavelength of 690 nm. The results are presented as percent of untreated control cells or the absorbance value.

DU145 [4] = assay: as above; assay type: cell-based, human; conditions: 25.0 μM

IC50 [1] | SMILES | % Proliferation (vs control) 24 h LNCaP-IL6 (LNCaP-IL6 cells; 2.5 uM) | % Proliferation (vs control) 48 h LNCaP-IL6 (LNCaP-IL6 cells; 2.5 uM) | % Proliferation (vs control) 24 h LNCaP-IL6 (LNCaP-IL6 cells; 5 uM) | % Proliferation (vs control) 48 h LNCaP-IL6 (LNCaP-IL6 cells; 5 uM) | % Proliferation (vs control) 24 h LNCaP-IL6 (LNCaP-IL6 cells; 10 uM) | % Proliferation (vs control) 48 h LNCaP-IL6 (LNCaP-IL6 cells; 10 uM) | % Proliferation (vs control) 24 h DU145 (DU145 [2]; 2.5 uM) | % Proliferation (vs control) 48 h Du145 (DU145 [2]; 2.5 uM) | % Proliferation (vs control) 24 h DU145 (DU145 [2]; 5 uM) | % Proliferation (vs control) 48 h Du145 (DU145 [2]; 5 uM) | % Proliferation (vs control) 24 h DU145 (DU145 [2]; 10 uM) | % Proliferation (vs control) 48 h Du145 (DU145 [2]; 10 uM) | Proliferation (vs control) Du145 (%) 24 h (DU145 [3]; 0.5 μM) | Proliferation (vs control) Du145 (%) 48 h (DU145 [3]; 0.5 μM) | Proliferation (vs control) Du145 (%) 24 h (DU145 [3]; 1.0 μM) | Proliferation (vs control) Du145 (%) 48 h (DU145 [3]; 1.0 μM) | Proliferation (vs control) Du145 (%) 24 h (DU145 [3]; 2.5 μM) | Proliferation (vs control) Du145 (%) 48 h (DU145 [3]; 2.5 μM) | Proliferation (vs control) Du145 (%) 24 h (DU145 [3]; 5.0 μM) | also measured
2.01 µM | COC(=O)C1=C[C@H](C)C[C@H]2C[C@@H](Cc3ccccc3)[C@@H]3O[C@]123 (stereo in doubt) [Example 9, methyl 2-benzyl-5-methyl-1a,2,3,3a,4,5-hexahydroindeno[1,7a-b]oxirene-7-carboxylate] | 92.78% | 104.12% | 90.02% | 108.49% | 96.73% | 96.48% | 96.36% | 93.96% | 88.29% | 85.24% | 75.01% | 55.43% | – | – | – | – | – | – | – | –
– | C[C@H]1C=C2C(=O)O[C@@H]3CC[C@H](C1(C)C)[C@]23O (stereo in doubt) [Example 5, 5,5a,6,7,7a,7b-hexahydro-7b-hydroxy-4,5,5-trimethyl-indeno[1,7-bc]furan-2(4H)-one] | – | – | – | – | – | – | – | – | – | – | – | – | 105.62% | 98.92% | 101.40% | 93.59% | 72.14% | 53.09% | 54.75% | Proliferation (vs control) Du145 (%) 48 h (DU145 [3]; 5.0 μM): 35.53%; Proliferation (vs control) Du145 (%) 24 h (DU145 [3]; 10.0 μM): 39.62%; Proliferation (vs control) Du145 (%) 48 h (DU145 [3]; 10.0 μM): 29.96%; Proliferation (vs control) Du145 (%) 24 h (DU145 [3]; 50.0 μM): 14.36%; Proliferation (vs control) Du145 (%) 48 h (DU145 [3]; 50.0 μM): 8.51%; Proliferation (vs control) Du145 (%) 24 h (DU145 [4]): 28.13%; Proliferation (vs control) Du145 (%) 48 h (DU145 [4]): 13.26%
2.98 µM | COC(=O)C1=C[C@H](C)C[C@H]2C[C@H](Cc3ccccc3)[C@@H]3O[C@]123 (stereo in doubt) [Example 10, methyl 2-benzyl-5-methyl-1a,2,3,3a,4,5-hexahydroindeno[1,7a-b]oxirene-7-carboxylate] | 81.18% | 74.81% | 92.69% | 80.02% | 76.05% | 23.18% | 86.82% | 88.02% | 98.85% | 92.54% | 66.76% | 28.27% | – | – | – | – | – | – | – | –
– | O=C1O[C@@H]2[C@H](Cc3ccccc3)C[C@@H]3CCC=C1[C@@]32O (stereo in doubt) [Example 6, 5,5a,6,7,7a,7b-hexahydro-7b-hydroxy-7-benzyl-indeno[1,7-bc]furan-2(4H)-one] | – | – | – | – | – | – | – | – | – | – | – | – | 110.14% | 121.11% | 98.76% | 120.77% | 104.13% | 101.61% | 81.25% | Proliferation (vs control) Du145 (%) 48 h (DU145 [3]; 5.0 μM): 78.86%; Proliferation (vs control) Du145 (%) 24 h (DU145 [3]; 10.0 μM): 43.88%; Proliferation (vs control) Du145 (%) 48 h (DU145 [3]; 10.0 μM): 42.70%; Proliferation (vs control) Du145 (%) 24 h (DU145 [3]; 50.0 μM): 23.59%; Proliferation (vs control) Du145 (%) 48 h (DU145 [3]; 50.0 μM): 9.88%; Proliferation (vs control) Du145 (%) 24 h (DU145 [4]): 45.01%; Proliferation (vs control) Du145 (%) 48 h (DU145 [4]): 23.80%
1.83 µM | COC(=O)C1=C[C@H](C)C[C@H]2C[C@H](c3ccccc3)[C@@H]3O[C@]123 (stereo in doubt) [Example 7, methyl 5-methyl-2-phenyl-1a,2,3,3a,4,5-hexahydroindeno[1,7a-b]oxirene-7-carboxylate] | 81.79% | 82.60% | 81.21% | 85.26% | 70.45% | 71.27% | 90.64% | 95.09% | 68.55% | 75.05% | 63.86% | 76.58% | – | – | – | – | – | – | – | –
2.49 µM | COC(=O)C1=C[C@H](C)C[C@H]2CC(C)(C)[C@@H]3O[C@]123 (stereo in doubt) [Example 11, methyl 2,2,5-trimethyl-1a,2,3,3a,4,5-hexahydroindeno[1,7a-b]oxirene-7-carboxylate] | 93.47% | 78.36% | 89.35% | 71.85% | 79.82% | 31.62% | 93.88% | 85.06% | 80.42% | 67.77% | 72.14% | 45.51% | – | – | – | – | – | – | – | –
– | C[C@H]1C=C2C(=O)O[C@@H]3C[C@@H](c4ccccc4)[C@H](C1)[C@]23O (stereo in doubt) [Example 4, 5,5a,6,7,7a,7b-hexahydro-7b-hydroxy-4-methyl-6-phenyl-indeno[1,7-bc]furan-2(4H)-one] | – | – | – | – | – | – | – | – | – | – | – | – | 125.24% | 161.90% | 76.74% | 106.97% | 86.48% | 106.23% | 91.39% | Proliferation (vs control) Du145 (%) 48 h (DU145 [3]; 5.0 μM): 73.13%; Proliferation (vs control) Du145 (%) 24 h (DU145 [3]; 10.0 μM): 45.29%; Proliferation (vs control) Du145 (%) 48 h (DU145 [3]; 10.0 μM): 59.35%; Proliferation (vs control) Du145 (%) 24 h (DU145 [3]; 50.0 μM): 18.31%; Proliferation (vs control) Du145 (%) 48 h (DU145 [3]; 50.0 μM): 11.34%; Proliferation (vs control) Du145 (%) 24 h (DU145 [4]): 22.17%; Proliferation (vs control) Du145 (%) 48 h (DU145 [4]): 21.83%
0.75 µM | COC(=O)C1=C[C@H](C)C[C@H]2C[C@@H](c3ccccc3)[C@@H]3O[C@]123 (stereo in doubt) [Example 8, methyl 5-methyl-2-phenyl-1a,2,3,3a,4,5-hexahydroindeno[1,7a-b]oxirene-7-carboxylate] | 69.23% | 48.79% | 58.97% | 20.28% | 52.67% | 18.81% | 80.94% | 63.59% | 58.19% | 27.29% | 48.49% | 19.98% | – | – | – | – | – | – | – | –
